#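 Tested at 5 concentrations; 48 h exposure; 96-well plates; endpoints linearly interpolated, else capped at highest concentration. GI50: concentration for 50% inhibition of growth. TGI: concentration producing complete growth inhibition.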
# Tested on: A549 NSCLC
# Experiment: inhibition of tumour cell growth, NCI panel, 48 h
Compound,TGI [µM],GI50 [nM]
CC(C)(C)CC(C)(C)c1cc2c(O)c(c1)Cc1cc(C(C)(C)CC(C)(C)C)cc(c1O)Cc1cc(C(C)(C)CC(C)(C)C)cc(c1O)Cc1cc(C(C)(C)CC(C)(C)C)cc(c1O)C2,> 100,–
COc1cc(C#CC(=O)OC/C=C/c2ccc3c(c2)OCO3)cc(OC)c1OC,> 100,–
Cc1cc([N+](=O)[O-])ccc1Nc1cccc(Cl)c1C,40.2,–
Cn1cc(CO)c2c1C(=O)C=C(N1CC1)C2=O,3.68,< 10
CC1=C(C(=O)Nc2ccccc2)C(c2ccccc2)C(C(=O)Nc2ccccc2)=C(C)N1,> 100,–
Cc1nn(-c2ccccc2)c2nc(N3CCOCC3)nnc12,> 100,–
CC(C)c1ccc2c(c1)CC[C@@H]1[C@@](C)(C(=O)O)CCC[C@]21C,25,5560
CCN(CC)CCOc1ccc(-c2nc3cc(Cl)ccc3s2)cc1,3.47,1750
C=C1C(=O)O[C@@H]2C[C@@H]1CC/C(C)=C/CC/C(C)=C/CC[C@@]2(C)O,41.2,18200
CCOc1ccccc1C=C1c2ccccc2C(=O)c2ccccc21,> 100,–
O=C(CCn1[nH]c(=O)c(Cl)c(Cl)c1=O)NO,> 100,–
CC(C)=CC/C=C(/C)[C@H]1CC[C@]2(C)[C@@H]1CC[C@@H]1[C@@]3(C)CCCNC(C)(C)[C@@H]3CC[C@]12C,4.88,2150
[N-]=[N+]=NC12CC3C4CC5CC3C(C1)C(C5)C4C2,> 100,–
CN(C)c1nc2ccccc2[nH]1,> 100,–
NNC(=S)N/N=C(\CC1OC(=O)c2ccccc21)c1ccccc1O (stereo not drawn),> 100,–
COC(=O)C1=C(O)c2cc(OC)c(OC)cc2C(c2ccc(OC)c(OC)c2)C1 (stereo not drawn),> 100,–
COC1(OC)CC2C(=O)N(Cc3ccccc3)C1C(S(=O)(=O)c1ccccc1)C2S(=O)(=O)c1ccccc1 (stereo not drawn),75,–

Compound,TGI [µM],GI50 [nM]
NC(=Nc1c([N+](=O)[O-])cnc2ccccc12)N1CCOCC1,> 100,–
Cc1cc(CC(O)c2ccc(Cl)c(Cl)c2)nc(=O)[nH]1 (stereo not drawn),66,–
COC(=O)C(=Cc1cc(OC)ccc1OC)C(=O)OC,92,–
CC1=NNC(=O)C2CCC(=O)N12 (stereo not drawn),> 100,–
CC(C)c1ccccc1NC(=O)CCc1n[nH]c(=S)o1,> 100,–
CC(C)=CCNc1ncnc2c1ncn2C1OC(CO)C(O)C1O (stereo not drawn),299,2850
CCCCC(C(=O)C(=O)NC1C2CC3CC(C2)CC1C3)C(=O)C(C)C (stereo not drawn),> 100,–
COC(=O)c1cc2c(s1)C(=O)c1ccccc1-2,> 100,–
NC(=O)NC1C(c2ccccc2)=C1c1ccccc1,74.6,–
Cn1c2c(c3ccccc31)C1CCCCCCC1C1C(=O)OC(=O)C21 (stereo not drawn),> 100,–
Cc1ccc(S(=O)(=O)N(CC(=O)O)c2ccccc2)cc1,> 100,–
COc1ccc(C(=O)C(c2ccc(OC)cc2)C2(O)C(=O)Nc3ccc([N+](=O)[O-])cc32)cc1 (stereo not drawn),> 100,–
O=C(/C=C/c1ccccc1O)c1ccccc1O,> 100,–
N#CC(N)(C(=O)CCC(=O)Nc1cccc(Cl)c1)c1ccc(Cl)cc1 (stereo not drawn),> 100,–
S=C(Nc1ccccc1)N(/N=C/C=C/c1ccccc1)c1nnc(-c2ccccc2)c(-c2ccccc2)n1,> 100,–
CN(C)N=Nc1ccc(NC=O)cc1,> 100,–
COc1cc(C2CC(c3cccc(Br)c3)=NN2C(C)=O)cc(OC)c1OC (stereo not drawn),> 100,635

# Tested on: UACC-62 melanoma
# Experiment: inhibition of tumour cell growth, NCI panel, 48 h
Compound,GI50 [µM],TGI [µM]
OC[C@H]1C[C@](O)(c2ccc(Cl)cc2)[C@@H](c2ccc(Cl)cc2)O1,16,31.6
CC(C)N(C(=O)C12C3C4C5(C#N)C3C1(C#N)C5C42I)C(C)C (stereo not drawn),–,> 100
C=COCCCOc1ccccc1,> 100,> 100
COc1cc2nc(-c3ccc(Cl)cc3)cc(OCCCN3CCCCC3)c2cc1OC,1.94,4.42
COc1ccc2c3c([nH]c2c1[N+](=O)[O-])C(C)=NCC3,–,62.3
C=C(c1nc2ccc(Cl)cc2[nH]c1=O)C(O)c1ccc(C(O)C(=O)c2nc3ccc(Cl)cc3[nH]c2=O)cc1 (stereo not drawn),–,> 100
O=c1c2sc(=S)n(-c3ccc(F)cc3)c2ncn1Cc1ccc(F)cc1F,> 100,> 100
CC(C)(C)CC(C)(C)c1cc2c(O)c(c1)Cc1cc(C(C)(C)CC(C)(C)C)cc(c1O)Cc1cc(C(C)(C)CC(C)(C)C)cc(c1O)Cc1cc(C(C)(C)CC(C)(C)C)cc(c1O)C2,–,> 100

# Source: PubChem BioAssay (NCI)
